Laboratory results reported in US20240228467A1, “INDIRUBIN COMPOUNDS AND METHODS THEREOF” (JAWAHARLAL NEHRU CENTRE FOR ADVANCED SCIENTIFIC RESEARCH, priority 2021, published 2024).

Tested on: HeLa and/or SH-SY5Y cells
Assay: Autophagic flux, RFP-EGFP-LC3 assay (fluorescent analysis, FIG. 1)
Type: cell-based
Conditions: compared to the growth media control
Source text: Autophagic flux refers to a measure of autophagic degradation activity. FIG. 1 depicts the fluorescent analysis of the autophagic flux in the presence of 6-bromoindirubin oxime (6-BIO), 6-MIO, and compounds of Formula I—compounds ‘a’ and ‘m’. FIG. 1 depicts that both autophagosomes and autolysosomes are increased with the compounds of Formula I when compared to the growth media control.
The assays were essentially performed as follows: RFP-EGFP-LC3 assay: sub-confluent HeLa and/or SH-SY5Y cells were seeded into 60 mm cell culture dishes, then transfected with ptf LC3 construct and/or siRNA and allowed to express for 48 h. Cells were trypsinized, seeded again on poly-D-lysine coated cover slips in a 12 or 24 well plates and allowed to attach. After appropriate treatments, the coverslips containing cells were processed for imaging. For immunofluorescent antibody staining, the cover slips were incubated in primary antibody at 4° C. for overnight followed by secondary antibody incubation at room temperature. For imaging the mammalian cells, after appropriate treatments, coverslips containing cells were fixed using 4% paraformaldehyde (PFA; Sigma) and then permeabilized using Triton X-100 (0.2%, HiMedia). Coverslips were mounted on slide using antifade, Vectashield mounting medium (Vector Laboratories). Images were acquired using DeltaVision Elite widefieldmicroscope (API, GE) with following filters: FITC (490/20 and 529/38), TRITC (542/27 and 594/45) and Cy5 (632/22 and 676/34). Acquired images were processed using DV softWoRX software. In this standard assay, the autophagosomes would appear as yellow whereas autolysosomes would be red as EGFP gets quenched at lysosomal acidic pH6.

Question: What does the source list for `O=C1Nc2cc(Br)ccc2/C1=C1/Nc2ccccc2/C1=N\OCCO` [m, (2Z,3E)-6′-bromo 3-((2-hydroxyethoxy)imino)-[2,3′-biindolinylidene]-2′-one]?
Answer: autolysosomes: increased; autophagosomes: increased

Question: Which results are given for `O=C1Nc2cc(Br)ccc2/C1=C1/Nc2ccccc2/C1=N\O.[Li]` [a, (2Z,3E)-6′-bromo-3-(hydroxyimino)-[2,3′-biindolinylidene]-2′-one lithium salt]?
Answer: autolysosomes: increased; autophagosomes: increased
